ChEMBL document CHEMBL1201862, “PubChem BioAssay data set” (2004)
Calls of active or inactive are those of the source.

Assays:
INS1 = assay: INS-1E survival protection against cytokine death – cell-based, luminescence, retest, dose response (AID 449756); format: functional; conditions: Rattus norvegicus;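 also: cell death triggered by IL-1 beta plus TNF-alpha plus IFN-gamma mixture; protective hits raise ATP signal compared with cytokine alone wells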
[1] = MITF Measured in Cell-Based System Using Plate Reader - 2084-01_Inhibitor_Dose_DryPowder_Activity_Set7.; format: functional
[2] = Counterscreen for antagonists of the orexin 1 receptor (OX1R; HCRTR1): Fluorescence-based cell-based high throughput dose response assay to identify antagonists of the parental CHO cell line. [Related pubchem assays (depositor defined):AID434989, AID435008, AID463079, AID485270, AID492963, AID492964, AID492965, AID493232, AID504699, AID504701]; format: functional
[3] = Trypanosoma cruzi growth suppression in host cells – NIH3T3 host cells, beta-gal luminescence, confirmation (AID 2044); format: functional, cell-based;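 also: intracellular parasites grown in NIH/3T3 mouse fibroblasts as host cells; luminescent beta-galactosidase reporter signal from transgenic T. cruzi replicating inside host cells; inhibitors lower the luminescence signal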
[4] = target: cGMP-dependent protein kinase 1 (Homo sapiens, UniProt Q13976); format: functional;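 also: value from a kinome panel screen with PRKG1 as the panel member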
Sequence of cGMP-dependent protein kinase 1 (Q13976 whole entry): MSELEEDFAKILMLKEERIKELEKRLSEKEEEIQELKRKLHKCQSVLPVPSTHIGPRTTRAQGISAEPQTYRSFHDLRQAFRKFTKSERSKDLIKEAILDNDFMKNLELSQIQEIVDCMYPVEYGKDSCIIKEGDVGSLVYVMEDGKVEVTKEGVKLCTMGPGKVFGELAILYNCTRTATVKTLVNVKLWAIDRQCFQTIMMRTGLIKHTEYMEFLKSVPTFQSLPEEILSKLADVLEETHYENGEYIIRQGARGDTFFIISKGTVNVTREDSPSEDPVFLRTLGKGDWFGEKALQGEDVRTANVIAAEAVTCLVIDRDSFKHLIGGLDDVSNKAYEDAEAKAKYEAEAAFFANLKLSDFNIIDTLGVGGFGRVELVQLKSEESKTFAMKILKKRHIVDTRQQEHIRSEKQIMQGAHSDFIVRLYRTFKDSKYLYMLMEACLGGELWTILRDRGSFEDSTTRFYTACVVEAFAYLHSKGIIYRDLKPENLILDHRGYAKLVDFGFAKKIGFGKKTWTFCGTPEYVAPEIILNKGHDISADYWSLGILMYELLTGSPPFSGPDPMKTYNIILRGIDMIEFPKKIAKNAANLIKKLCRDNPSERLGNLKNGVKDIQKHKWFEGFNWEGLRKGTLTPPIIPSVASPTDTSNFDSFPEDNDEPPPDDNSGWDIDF

Aurora kinase A = Aurora kinase A (Homo sapiens, UniProt O14965); format: functional;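 also: value from the Navigating the Kinome kinase panel profiling, panel entry STK6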
[5] = target: Tyrosine-protein kinase Blk (Homo sapiens, UniProt P51451); format: functional;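 also: obtained as one member of a kinome-wide kinase assay panel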
Sequence of Tyrosine-protein kinase Blk (P51451 whole entry): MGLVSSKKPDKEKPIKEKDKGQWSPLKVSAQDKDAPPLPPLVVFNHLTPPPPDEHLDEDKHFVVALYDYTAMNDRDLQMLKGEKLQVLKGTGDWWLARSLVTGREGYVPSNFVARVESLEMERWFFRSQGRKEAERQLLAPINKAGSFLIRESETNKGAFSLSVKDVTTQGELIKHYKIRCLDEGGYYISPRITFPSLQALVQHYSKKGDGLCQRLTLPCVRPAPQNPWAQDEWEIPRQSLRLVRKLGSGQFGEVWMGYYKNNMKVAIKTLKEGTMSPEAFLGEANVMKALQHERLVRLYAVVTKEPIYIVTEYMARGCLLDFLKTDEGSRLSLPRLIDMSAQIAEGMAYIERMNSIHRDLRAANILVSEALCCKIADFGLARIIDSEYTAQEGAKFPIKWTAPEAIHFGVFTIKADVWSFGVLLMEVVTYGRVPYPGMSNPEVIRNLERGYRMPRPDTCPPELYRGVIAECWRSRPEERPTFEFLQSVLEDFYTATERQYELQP

[6] = target: Protein kinase C gamma type (Homo sapiens, UniProt P05129); format: functional
[7] = target: MAP kinase-interacting serine/threonine-protein kinase 2 (Homo sapiens, UniProt Q9HBH9); format: functional
Sequence of MAP kinase-interacting serine/threonine-protein kinase 2 (Q9HBH9 whole entry): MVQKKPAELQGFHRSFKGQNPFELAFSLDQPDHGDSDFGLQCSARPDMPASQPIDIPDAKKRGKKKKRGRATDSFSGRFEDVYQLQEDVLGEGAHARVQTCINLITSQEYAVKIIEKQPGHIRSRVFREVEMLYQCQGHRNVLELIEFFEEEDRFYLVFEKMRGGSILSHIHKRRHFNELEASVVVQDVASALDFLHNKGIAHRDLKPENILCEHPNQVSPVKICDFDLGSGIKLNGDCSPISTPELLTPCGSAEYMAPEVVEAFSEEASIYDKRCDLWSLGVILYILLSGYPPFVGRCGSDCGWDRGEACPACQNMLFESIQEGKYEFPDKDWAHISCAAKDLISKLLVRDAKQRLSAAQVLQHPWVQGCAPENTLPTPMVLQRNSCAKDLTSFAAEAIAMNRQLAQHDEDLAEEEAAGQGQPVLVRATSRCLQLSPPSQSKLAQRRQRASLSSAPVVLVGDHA

Misshapen-like kinase 1 = Misshapen-like kinase 1 (Homo sapiens, UniProt Q8N4C8); format: functional;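 also: kinome panel screen with MINK as the panel member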
[8] = target: Vascular endothelial growth factor receptor 3 (Homo sapiens, UniProt P35916); format: functional;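 also: value from a kinome-wide profiling panel, with FLT4 as the panel member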
[9] = target: Macrophage-stimulating protein receptor (Homo sapiens, UniProt Q04912); assay: Navigating the Kinome. Panel member name: MST1R; format: functional
Sequence of Macrophage-stimulating protein receptor (Q04912 25-304 limits assumed): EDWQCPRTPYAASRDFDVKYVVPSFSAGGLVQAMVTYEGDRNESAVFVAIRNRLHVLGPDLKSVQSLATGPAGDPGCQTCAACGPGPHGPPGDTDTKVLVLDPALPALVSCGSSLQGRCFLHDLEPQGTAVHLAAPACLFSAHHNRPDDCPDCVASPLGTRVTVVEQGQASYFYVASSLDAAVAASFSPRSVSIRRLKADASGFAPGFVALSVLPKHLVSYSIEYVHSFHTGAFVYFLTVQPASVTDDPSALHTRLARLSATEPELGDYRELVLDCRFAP
Sequence of Macrophage-stimulating protein receptor (Q04912 310-1400 limits assumed): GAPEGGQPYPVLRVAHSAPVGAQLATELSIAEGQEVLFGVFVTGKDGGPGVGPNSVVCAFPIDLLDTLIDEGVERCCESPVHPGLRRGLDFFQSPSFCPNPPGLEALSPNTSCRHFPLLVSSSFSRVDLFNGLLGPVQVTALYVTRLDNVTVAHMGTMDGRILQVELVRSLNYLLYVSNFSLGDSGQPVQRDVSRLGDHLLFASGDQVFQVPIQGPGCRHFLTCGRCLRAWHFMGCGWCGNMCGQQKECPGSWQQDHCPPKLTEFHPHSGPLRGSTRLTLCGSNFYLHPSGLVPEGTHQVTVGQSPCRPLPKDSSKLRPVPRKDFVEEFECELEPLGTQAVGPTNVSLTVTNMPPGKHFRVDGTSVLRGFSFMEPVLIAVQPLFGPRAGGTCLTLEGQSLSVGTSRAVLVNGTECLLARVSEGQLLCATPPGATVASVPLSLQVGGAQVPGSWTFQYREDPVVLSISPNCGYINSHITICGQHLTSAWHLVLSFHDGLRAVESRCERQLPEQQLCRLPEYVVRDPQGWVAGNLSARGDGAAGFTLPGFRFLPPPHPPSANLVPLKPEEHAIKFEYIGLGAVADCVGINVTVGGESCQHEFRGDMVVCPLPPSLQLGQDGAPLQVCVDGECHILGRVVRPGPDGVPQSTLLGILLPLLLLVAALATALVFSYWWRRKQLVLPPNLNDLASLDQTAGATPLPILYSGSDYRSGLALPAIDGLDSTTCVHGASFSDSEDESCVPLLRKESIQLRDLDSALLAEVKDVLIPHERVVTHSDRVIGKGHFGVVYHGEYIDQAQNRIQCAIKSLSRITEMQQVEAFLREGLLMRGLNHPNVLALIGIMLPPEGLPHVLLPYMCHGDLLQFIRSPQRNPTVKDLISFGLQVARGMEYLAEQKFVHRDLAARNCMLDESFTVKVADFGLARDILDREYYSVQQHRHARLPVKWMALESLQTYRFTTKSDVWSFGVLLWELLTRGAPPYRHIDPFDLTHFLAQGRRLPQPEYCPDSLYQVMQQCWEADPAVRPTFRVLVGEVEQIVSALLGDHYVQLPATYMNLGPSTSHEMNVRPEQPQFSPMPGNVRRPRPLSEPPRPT

[10] = target: Serine/threonine-protein kinase BRSK1 (Homo sapiens, UniProt Q8TDC3); format: functional;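 also: measured within a kinome-wide kinase panel, with the target listed as KIAA1811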
Sequence of Serine/threonine-protein kinase BRSK1 (Q8TDC3 whole entry): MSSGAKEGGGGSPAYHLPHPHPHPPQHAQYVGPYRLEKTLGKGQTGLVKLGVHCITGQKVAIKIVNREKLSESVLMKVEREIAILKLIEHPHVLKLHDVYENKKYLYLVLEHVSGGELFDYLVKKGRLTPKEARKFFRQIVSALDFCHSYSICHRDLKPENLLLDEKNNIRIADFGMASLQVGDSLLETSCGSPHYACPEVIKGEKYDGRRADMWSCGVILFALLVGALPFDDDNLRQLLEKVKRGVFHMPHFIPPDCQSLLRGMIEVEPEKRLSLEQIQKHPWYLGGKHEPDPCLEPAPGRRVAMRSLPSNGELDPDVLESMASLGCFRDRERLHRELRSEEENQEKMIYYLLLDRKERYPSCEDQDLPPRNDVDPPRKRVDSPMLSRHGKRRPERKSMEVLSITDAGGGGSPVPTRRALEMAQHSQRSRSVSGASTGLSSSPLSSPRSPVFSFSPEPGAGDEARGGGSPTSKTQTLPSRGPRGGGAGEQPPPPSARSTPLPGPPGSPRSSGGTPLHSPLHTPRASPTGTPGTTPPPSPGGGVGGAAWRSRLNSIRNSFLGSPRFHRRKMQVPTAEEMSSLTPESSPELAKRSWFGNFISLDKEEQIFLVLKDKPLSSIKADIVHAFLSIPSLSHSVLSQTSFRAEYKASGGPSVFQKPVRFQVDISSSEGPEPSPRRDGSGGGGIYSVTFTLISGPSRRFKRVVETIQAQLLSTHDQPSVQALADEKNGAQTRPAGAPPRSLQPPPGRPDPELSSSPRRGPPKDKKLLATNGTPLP

[11] = target: Mitogen-activated protein kinase 14 (Homo sapiens, UniProt Q16539); format: functional;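 also: part of a kinome-wide panel, MAPK14 entry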
Sequence of Mitogen-activated protein kinase 14 (Q16539 whole entry): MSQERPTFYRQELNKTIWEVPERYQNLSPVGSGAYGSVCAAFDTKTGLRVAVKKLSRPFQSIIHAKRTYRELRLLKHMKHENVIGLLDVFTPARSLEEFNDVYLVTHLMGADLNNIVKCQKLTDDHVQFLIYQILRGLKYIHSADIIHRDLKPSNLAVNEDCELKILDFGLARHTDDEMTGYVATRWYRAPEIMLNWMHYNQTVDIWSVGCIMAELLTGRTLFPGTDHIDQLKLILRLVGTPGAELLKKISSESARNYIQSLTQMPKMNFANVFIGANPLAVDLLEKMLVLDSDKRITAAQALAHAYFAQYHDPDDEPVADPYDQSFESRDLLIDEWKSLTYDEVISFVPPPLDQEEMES

[12] = target: Intestinal-type alkaline phosphatase (Homo sapiens, UniProt P09923); assay: activation of human intestinal alkaline phosphatase – biochemical, dose response (AID 488873); format: functional

**Q.** With `C=CCNC1=C(Cl)C(=O)c2ccccc2C1=O` as the compound, how does the AC50 (INS1) read?
**A.** 7640 nM (active)

**Q.** What about the AC50 [1] of the same compound?
**A.** 735 nM (active)

**Q.** With `CN(C)c1ccc(-c2nnc(-c3cccs3)o2)cc1` as the compound, how does the IC50 [2] read?
**A.** > 49700 nM (inactive)

**Q.** Which EC50 [3] does the source give for `CCOC(=O)C(C(=O)OCC)c1cc(Br)c2noc3c2c1C(=O)c1ccccc1-3` here?
**A.** 510 nM (active)

**Q.** With `COc1ccc(C(=O)Nc2n[nH]c3ccc(-c4cn(Cc5ccccc5)nn4)cc23)cc1OC` as the compound, how does the Ki [4] read?
**A.** 631 nM (active)

**Q.** And the Ki (Aurora kinase A)?
**A.** 398 nM (active)

**Q.** What about the Ki [5] of the same compound?
**A.** 1260 nM (active)

**Q.** And the Ki [6]?
**A.** 126 nM (active)

**Q.** What about the Ki [7] of the same compound?
**A.** 3160 nM (active)

**Q.** What about the Ki (Misshapen-like kinase 1) of the same compound?
**A.** 251 nM (active)

**Q.** And the Ki [8]?
**A.** 200 nM (active)

**Q.** And the Ki [9]?
**A.** 794 nM (active)

**Q.** And the Ki [10]?
**A.** 1260 nM (active)

**Q.** And the Ki [11]?
**A.** > 3980 nM (inactive)

**Q.** For `CS(=O)(=O)c1ccc2c(c1)SC1=NC(=O)/C(=C/c3ccc(O)c(O)c3)C(=N)N12`, which EC50 [12] is on record?
**A.** 61000 nM (active)
